Laboratory results published in ChEMBL document CHEMBL4390660, “Synthesis and biological evaluation of marine alkaloid-oriented β-carboline analogues” (Eur J Med Chem, 2019).

Columns and labels:
SGC-7901 [1] = assay: Cytotoxicity against human SGC7901 cells assessed as growth inhibition at 40 ug/mL after 72 hrs by MTT assay; type: functional; settings: SGC-7901, 72 h, read-out: GI
[2] = Cytotoxicity against human A875 cells assessed as growth inhibition at 40 ug/mL after 72 hrs by MTT assay; type: functional; settings: A875, 72 h, read-out: GI
HepG2 [3] = assay: Cytotoxicity against human HepG2 cells assessed as growth inhibition at 40 ug/mL after 72 hrs by MTT assay; type: functional; settings: HepG2, 72 h, read-out: GI
[4] = Cytotoxicity against African green monkey MARC145 cells assessed as growth inhibition at 40 ug/mL after 72 hrs by MTT assay; type: functional; settings: Chlorocebus aethiops, MARC145, 72 h; read-out: GI
SGC-7901 [5] = assay: Cytotoxicity against human SGC7901 cells assessed as growth inhibition after 72 hrs by MTT assay; type: functional, cell-based; settings: SGC-7901, 72 h
[6] = Cytotoxicity against human A875 cells assessed as growth inhibition after 72 hrs by MTT assay; type: functional, cell-based; settings: A875, 72 h
HepG2 [7] = assay: Cytotoxicity against human HepG2 cells assessed as growth inhibition after 72 hrs by MTT assay; type: functional, cell-based; settings: HepG2, 72 h
[8] = Cytotoxicity against African green monkey MARC145 cells assessed as growth inhibition after 72 hrs by MTT assay; type: functional, cell-based; settings: Chlorocebus aethiops, MARC145, 72 h

Row | SMILES | inhibition of growth at 40 µg/mL (SGC-7901 [1]) [%] | inhibition of growth at 40 µg/mL [2] [%] | inhibition of growth at 40 µg/mL (HepG2 [3]) [%] | inhibition of growth at 40 µg/mL [4] [%] | IC50 (SGC-7901 [5]) [µM] | IC50 [6] [µM] | IC50 (HepG2 [7]) [µM] | IC50 [8] [µM]
1 | O=C(NCCc1ccc(F)cc1)c1cc2c([nH]c3ccccc32)c(C(=O)c2c[nH]c3ccccc23)n1 | 76.7 | 33.9 | 72.4 | 63 | 34 | > 80 | 38.5 | 48.8
2 | O=C(NCCc1c[nH]c2ccccc12)c1cc2c([nH]c3ccccc32)c(C(=O)c2c[nH]c3ccccc23)n1 | 76.6 | 77.8 | 74.4 | 67 | 38.6 | 50.4 | 41 | 44.1
3 | O=C(NCc1ccc(F)cc1)c1cc2c([nH]c3ccccc32)c(C(=O)c2c[nH]c3ccccc23)n1 | 78.8 | 68.1 | 73.9 | 63.8 | 34.5 | 63.1 | 39 | 55.1
4 | O=C(c1c[nH]c2ccccc12)c1nccc2c1[nH]c1ccccc12 | 43.2 | 59.1 | 30.5 | 34.6 | > 120 | 75.8 | > 120 | > 120
5 | CS(=O)(=O)CCNC(=O)c1cc2c([nH]c3ccccc32)c(C(=O)c2c[nH]c3ccccc23)n1 | 88.5 | 87.9 | 87.3 | 90.2 | 6.82 | 8.43 | 7.69 | 7.19
6 | O=C(NCCc1cccc(O)c1)c1cc2c([nH]c3ccccc32)c(C(=O)c2c[nH]c3ccccc23)n1 | 88.3 | 87.5 | 86.9 | 83.2 | 17.7 | 11.9 | 8.63 | 13.8
7 | O=C(Nc1ccc(F)cc1)c1cc2c([nH]c3ccccc32)c(C(=O)c2c[nH]c3ccccc23)n1 | 34 | 20.7 | 34.8 | 47.5 | > 85 | > 85 | > 85 | > 85
8 | O=C(NCc1ccccc1)c1cc2c([nH]c3ccccc32)c(C(=O)c2c[nH]c3ccccc23)n1 | 79 | 75.5 | 77.3 | 67.4 | 39.9 | 56.4 | 36.2 | 42.8
9 | O=C(NCc1ccccn1)c1cc2c([nH]c3ccccc32)c(C(=O)c2c[nH]c3ccccc23)n1 | 69.5 | 70.7 | 79.6 | 66.2 | 43.9 | 42.5 | 26.3 | 33.8
10 | O=C(O)c1cc2c([nH]c3ccccc32)c(C(=O)c2c[nH]c3ccccc23)n1 | 63 | 72.2 | 78.4 | 72 | 67.7 | 48.8 | 51.8 | 41.9
